Marks after values point to notes of the source that are not given here. Peptide text beside a SMILES is read from it.
Tests used:
[1] = biological target: purified human DPP IV enzyme (Homo sapiens, UniProt P27487); assay: Luminescence DPPIV‐GLO DPP IV inhibition biochemical assay (cell‐free system)
Protocol: The luminescence DPPIV‐GLO Protease assay (G8351, Promega, Madison, WI) was performed to measure the DPP IV inhibitory capacity of selected AB7S peptides and S7S peptides. Percent inhibition was calculated for each sample. Results were presented as percent inhibition per log (µg peptide/mL). The inhibitory concentration (IC) values of the peptides were calculated using Origin Pro software (Version 2021, OriginLab Corporation, Northampton, MA, USA).

[2] = biological target: T1, DPP IV activity in HepG2 cells (Homo sapiens, UniProt P27487); assay: Luminescence DPP IV assay in the cell‐based system (HepG2); conditions: 24 h treatment; for IC20: read-out: DPP IV inhibition IC20
T1 construct: dose‐response in vitro experiments conducted using the HepG2 cell culture; host or cells: HepG2
T1 sequence (P27487 whole entry): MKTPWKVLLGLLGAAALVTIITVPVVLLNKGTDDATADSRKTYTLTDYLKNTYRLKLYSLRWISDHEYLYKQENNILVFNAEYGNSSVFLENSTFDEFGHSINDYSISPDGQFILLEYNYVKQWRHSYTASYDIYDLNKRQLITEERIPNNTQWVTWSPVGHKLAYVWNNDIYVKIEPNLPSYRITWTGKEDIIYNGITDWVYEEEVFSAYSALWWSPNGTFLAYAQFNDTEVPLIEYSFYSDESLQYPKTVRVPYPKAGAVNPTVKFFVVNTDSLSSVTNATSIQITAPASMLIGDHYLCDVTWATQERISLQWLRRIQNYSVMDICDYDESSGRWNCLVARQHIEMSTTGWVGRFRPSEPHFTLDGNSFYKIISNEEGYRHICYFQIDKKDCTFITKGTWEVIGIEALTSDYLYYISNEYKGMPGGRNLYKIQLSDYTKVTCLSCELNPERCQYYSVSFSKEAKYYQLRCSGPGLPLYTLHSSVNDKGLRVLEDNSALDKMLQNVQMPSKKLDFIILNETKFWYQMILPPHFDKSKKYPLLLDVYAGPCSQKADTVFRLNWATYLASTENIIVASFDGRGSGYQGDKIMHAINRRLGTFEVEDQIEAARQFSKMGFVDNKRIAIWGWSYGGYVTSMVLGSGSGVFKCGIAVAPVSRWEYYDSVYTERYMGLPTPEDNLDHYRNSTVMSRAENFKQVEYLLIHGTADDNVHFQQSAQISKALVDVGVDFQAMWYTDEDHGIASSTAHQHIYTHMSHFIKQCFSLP
Protocol: (§1) HepG2 cells were seeded in either 96‐well plates or 6‐well plates for 24 h. For the healthy cell model (NG), cells were incubated in a medium with a healthy/normal glucose level (5.5 mM glucose), and no stimulation was performed. For the insulin‐resistant cell model (HG), cells were stimulated according to the methods used in a previous publication. In brief, cells were treated for 24 h using 25 mM glucose with 100 nM insulin to stimulate insulin resistance in the HepG2 cells. After seeding or insulin‐resistant stimulation, the cells were treated with selected pure AB7S peptides, selected pure S7S peptides, peptide Asp‐Leu‐Asp‐Val (DLDV; peptide with no DPP IV inhibitory capacity), or 1 nM linagliptin (DPP IV inhibitor) for 24 h. […] Treated cells were used to either perform cell viability assays or were collected, centrifuged, and stored at −80°C until being used.
DPP IV inhibition was measured using the luminescence DPPIV‐GLO Protease assay (G8351, Promega, Madison, WI). In brief, treated cells were incubated with three concentrations of selected pure AB7S peptides or selected pure S7S peptides for 24 h, and linagliptin (1 nM) was used as a positive control. Treated cells were collected and stored at −80°C for no more than one week until being used for the DPPIV‐GLO protease assay. Percent inhibition was calculated, and results were presented as percent inhibition per log (µg peptide/mL). The IC values of the peptides were calculated using Origin Pro software (Version 2021, OriginLab Corporation, Northampton, MA, USA).

[3] = system: Akt (AKT serine/threonine kinase); assay: Insulin receptor phospho antibody microarray: Akt; format: cell-based, human; conditions: VP 9.58 µM, HepG2, healthy state, related to the untreated control, p < 0.05
Protocol: (§2) Cells treated with VP (9.58 µM) and the untreated cells were tested using immunoassay proteomics. The IC50 value of VP obtained from the luminescence‐based DPP IV inhibition biochemical assay was used as the treatment concentration. Cells were treated as described in Section 2.4. An insulin receptor microarray was performed according to the manufacturer's instructions to test the protein expression of markers in the insulin signaling pathway (Insulin Receptor Phospho Antibody Array, PIG219, Full Moon BioSystem, Sunnyvale, CA, USA). Array signals were visualized with a 20× objective using a Widefield Fluorescence Microscope (Carl Zeiss AG, Germany) and were analyzed as previously described. Student's t‐test was used to assess the differences between the VP treatment and the negative control.

[4] = system: mTOR (Mechanistic target of rapamycin); assay: Insulin receptor phospho antibody microarray: mTOR; format: cell-based, human; conditions: VP 9.58 µM, HepG2, healthy state, related to the untreated control, p < 0.05
Protocol: as §2

[5] = system: AMPK1/AMPK2 (AMP‐activated protein kinase catalytic subunit alpha‐1/2); assay: Insulin receptor phospho antibody microarray: AMPK1/AMPK2; format: cell-based, human; conditions: VP 9.58 µM, HepG2, healthy state, related to the untreated control, p < 0.05
Protocol: as §2

[6] = system: Shc (SHC‐transforming protein 1); assay: Insulin receptor phospho antibody microarray: Shc; format: cell-based, human; conditions: VP 9.58 µM, HepG2, healthy state, related to the untreated control, p < 0.05
Protocol: as §2

[7] = system: PP2A‐α (Protein phosphatase 2 alpha); assay: Insulin receptor phospho antibody microarray: PP2A‐α; format: cell-based, human; conditions: VP 9.58 µM, HepG2, healthy state, related to the untreated control, p < 0.05
Protocol: as §2

[8] = system: IR (Insulin receptor); assay: Insulin receptor phospho antibody microarray: IR; format: cell-based, human; conditions: VP 9.58 µM, HepG2, healthy state, related to the untreated control, p < 0.05
Protocol: as §2

[9] = system: Akt1S1 (AKT1 substrate 1); assay: Insulin receptor phospho antibody microarray: Akt1S1; format: cell-based, human; conditions: VP 9.58 µM, HepG2, healthy state, related to the untreated control, p < 0.05
Protocol: as §2

[10] = system: IRS‐1 (Insulin receptor substrate 1); assay: Insulin receptor phospho antibody microarray: IRS‐1; format: cell-based, human; conditions: VP 9.58 µM, HepG2, healthy state, related to the untreated control, p < 0.05
Protocol: as §2

[11] = system: IRS‐1; assay: Western blot IRS‐1 protein expression in HepG2 cells; format: cell-based, human; conditions: VP 9.58 µM, IPA 7.86 µM, DLDV 1790 µM, 24 h; for IRS‐1 protein expression, increase over untreated controls: healthy state (NG, 5.5 mM glucose), linagliptin 1 nM; for IRS‐1 protein expression, increase over untreated insulin‐resistant cells: insulin‐resistant state (HG, 25 mM glucose with 100 nM insulin)
Protocol: as §1
(§3) Cells treated with VP (9.58 µM), IPA (7.86 µM), DLDV (1790 µM), or linagliptin (1 nM) and untreated cells were used for western blot. In brief, membranes were incubated with conjugated antibodies for human IRS‐1 (sc‐8038 HRP, 1:100) and Akt‐1 (sc‐5298 HRP, 1:100), or ACCα (sc‐137104 HRP, 1:100) overnight at 4°C and washed. Membranes were also incubated with unconjugated primary antibodies for human Glut 2 (07‐1402, 1:1000), then washed and probed with secondary sheep anti‐mouse and donkey anti‐rabbit antibodies (NA931V and NA934V, 1:2500, 2 h, room temperature; Cytiva, Marlborough, MA, USA). GAPDH (sc‐25778 HRP or sc‐47724, 1:4000) was used as the protein loading control and was used to evaluate the relative expression of each protein. Clarity Western ECL Substrate (Bio‐Rad, Hercules, CA, USA) and ImageQuant 800 System (GE Healthcare, Buckinghamshire, UK) were used for imaging.

[12] = system: Akt‐1; assay: Western blot Akt‐1 protein expression in HepG2 cells; format: cell-based, human; conditions: VP 9.58 µM, IPA 7.86 µM, DLDV 1790 µM, 24 h; for Akt‐1 protein expression, increase over untreated controls: healthy state (NG, 5.5 mM glucose), linagliptin 1 nM; for Akt‐1 protein expression, increase over untreated insulin‐resistant cells: insulin‐resistant state (HG, 25 mM glucose with 100 nM insulin)
Protocol: as §1, §3

[13] = system: Glut 2; assay: Western blot Glut 2 protein expression in HepG2 cells; format: cell-based, human; conditions: for Glut 2 protein expression, increase over untreated controls: healthy state (NG, 5.5 mM glucose), linagliptin 1 nM; for Glut 2 protein expression, increase over untreated controls / Glut 2 protein expression, increase over untreated insulin‐resistant cells: VP 9.58 µM, IPA 7.86 µM, DLDV 1790 µM, 24 h; for Glut 2 protein expression, increase over untreated insulin‐resistant cells: insulin‐resistant state (HG, 25 mM glucose with 100 nM insulin)
Protocol: as §1, §3

[14] = system: ACCα; assay: Western blot ACCα protein expression in HepG2 cells; format: cell-based, human; conditions: VP 9.58 µM, IPA 7.86 µM, DLDV 1790 µM, 24 h; for ACCα protein expression, change versus untreated controls: healthy state (NG, 5.5 mM glucose), linagliptin 1 nM; for ACCα protein expression, change versus untreated insulin‐resistant cells: insulin‐resistant state (HG, 25 mM glucose with 100 nM insulin)
Protocol: as §1, §3

[15] = system: Glut 2; assay: Glut 2 immunocytochemical fluorescence confocal microscopy in HepG2 cells; format: cell-based, human; conditions: VP 9.58 µM, linagliptin 1 nM; for Glut 2 fluorescence emission, higher than the untreated control: healthy state; for Glut 2 fluorescence emission, increase compared to the untreated insulin‐resistant cells: insulin‐resistant state
Protocol: as §1
The expression of Glut 2 due to the peptide treatment (VP, 9.58 µM) was investigated in HepG2 cells seeded in Ibidi imaging dish (Ibidi, Fitchburg, WI, USA). Cells were treated as described in Section 2.4. The positive control (1 nM linagliptin) was also tested. The immunocytochemical fluorescence confocal microscopy was performed according to a previous procedure. In brief, cells were fixed, permeabilized, blocked, and incubated with Glut 2 antibodies (07‐1402, 1:1000) overnight at 4°C. Cells were then washed twice, incubated with anti‐rabbit IgG secondary antibody (A‐11012; 1:200) for 2 h in the dark, cured with ProLong Gold Antifade Reagent with DAPI (4′,6‐diamidino‐2‐phenylindole), and stored at 4°C until imaging. Cell images were obtained with 63× oil immersion objective (Glut 2: excitation wavelength: 557 nm, emission wavelength: 572 nm; DAPI: excitation wavelength: 353 nm; emission wavelength: 465 nm) using a Carl Zeiss LSM 900 Laser Scanning Microscope (Carl Zeiss AG, Germany).

Sequence of purified human DPP IV enzyme (P27487 whole entry): as above

CC[C@H](C)[C@H](N)C(=O)N1CCC[C@H]1C(=O)N[C@@H](C)C(=O)O [IPA, Ile‐Pro‐Ala] (H-Ile-Pro-Ala-OH)
IC20 [1]: 33.1 µM | IC50 [1]: 70.5 µM | IC20 [2]: 3.66 µM | IC50 ([2]; read-out: DPP IV inhibition IC50): 7.86 µM

CC(C)[C@H](N)C(=O)N1CCC[C@H]1C(=O)O [VP, Val‐Pro] (H-Val-Pro-OH; N-terminus and C-terminus assumed)
IC20 [1]: 200 µM | IC20 [2]: 4.69 µM | Akt Phosphorylated/Non‐phosphorylated ratio [3]: 3.9^* Fold Change | mTOR Phosphorylated/Non‐phosphorylated ratio [4]: 3.6^* Fold Change | AMPK1/AMPK2 Phosphorylated/Non‐phosphorylated ratio [5]: 3.5^* Fold Change | Shc Phosphorylated/Non‐phosphorylated ratio [6]: 3.2^* Fold Change | PP2A‐α Phosphorylated/Non‐phosphorylated ratio [7]: 2.6^* Fold Change | IR Phosphorylated/Non‐phosphorylated ratio [8]: 1.7^* Fold Change | Akt1S1 Phosphorylated/Non‐phosphorylated ratio [9]: 1.3^* Fold Change | IRS‐1 Phosphorylated/Non‐phosphorylated ratio [10]: 0.2^* Fold Change | IRS‐1 protein expression, increase over untreated controls [11]: > 50% | IRS‐1 protein expression, increase over untreated insulin‐resistant cells [11]: > 25% | Akt‐1 protein expression, increase over untreated controls [12]: > 25% | Akt‐1 protein expression, increase over untreated insulin‐resistant cells [12]: > 25% | Power in increasing Glut 2 protein expression relative to the digested adzuki bean β‐vignin protein ([13]; HepG2, comparison based on previous data): > 100 times | Glut 2 protein expression, increase over untreated controls [13]: > 25% | Glut 2 protein expression, increase over untreated insulin‐resistant cells [13]: > 25% | ACCα protein expression, change versus untreated controls [14]: no changes | ACCα protein expression, change versus untreated insulin‐resistant cells [14]: not different | Glut 2 fluorescence emission, higher than the untreated control [15]: 36% | Glut 2 fluorescence emission, increase compared to the untreated insulin‐resistant cells [15]: > 14%

CC#CCn1c(N2CCC[C@@H](N)C2)nc2c1c(=O)n(Cc1nc(C)c3ccccc3n1)c(=O)n2C [linagliptin, Linagliptin, reference compound]
IRS‐1 protein expression, increase over untreated controls [11]: > 50% | Akt‐1 protein expression, increase over untreated controls [12]: > 25% | Glut 2 protein expression, increase over untreated controls [13]: > 25% | ACCα protein expression, change versus untreated controls [14]: no changes | Glut 2 fluorescence emission, higher than the untreated control [15]: 36% | Glut 2 fluorescence emission, increase compared to the untreated insulin‐resistant cells [15]: > 14%

Asp‐Leu‐Asp‐Val [DLDV]
IRS‐1 protein expression, increase over untreated controls [11]: no differences | IRS‐1 protein expression, increase over untreated insulin‐resistant cells [11]: no differences | Akt‐1 protein expression, increase over untreated controls [12]: no differences | Akt‐1 protein expression, increase over untreated insulin‐resistant cells [12]: no differences | Glut 2 protein expression, increase over untreated controls [13]: no differences | Glut 2 protein expression, increase over untreated insulin‐resistant cells [13]: no differences | ACCα protein expression, change versus untreated controls [14]: no differences | ACCα protein expression, change versus untreated insulin‐resistant cells [14]: no differences

Leu‐Leu‐Ser [LLS]
IC20 [1]: 40.1 µM | IC20 [2]: 7.13 µM

Phe‐Asn‐Glu [FNE]
DPP IV inhibition IC5 [1]: 5.65 µM | DPP IV inhibition IC5 [2]: 63.52 µM

Pro‐Met [PM]
IC20 [1]: 59.4 µM | IC20 [2]: 5.14 µM
